Like-named read-outs stand apart in the source and are kept apart here.
Columns and labels:
[1] = target: human norepinephrine transporter (Homo sapiens (Human), UniProt P23975); assay: Human NET (norepinephrine transporter) uptake assay; format: cell-based; details: read-out: hNET Ki
How it was run: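 HEK293F cells transfected with human NET were thawed, plated at about 60,000 cells/well and held at 37 °C for at least 3 h. Compounds came from 10 mM DMSO stocks, with nomifensine as control, in 1×HBSS/0.02 M HEPES. Uptake was followed with a neurotransmitter transporter dye, dosed as % of vendor reconstitution, in triplicate.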

[2] = target: CYP3A4 (Homo sapiens (Human), UniProt P08684); assay: Cytochrome P450 inhibition assay, recombinant CYP3A4 (BFC substrate); format: in vitro ADME; details: recombinant enzyme
Sequence of CYP3A4 (P08684 whole entry): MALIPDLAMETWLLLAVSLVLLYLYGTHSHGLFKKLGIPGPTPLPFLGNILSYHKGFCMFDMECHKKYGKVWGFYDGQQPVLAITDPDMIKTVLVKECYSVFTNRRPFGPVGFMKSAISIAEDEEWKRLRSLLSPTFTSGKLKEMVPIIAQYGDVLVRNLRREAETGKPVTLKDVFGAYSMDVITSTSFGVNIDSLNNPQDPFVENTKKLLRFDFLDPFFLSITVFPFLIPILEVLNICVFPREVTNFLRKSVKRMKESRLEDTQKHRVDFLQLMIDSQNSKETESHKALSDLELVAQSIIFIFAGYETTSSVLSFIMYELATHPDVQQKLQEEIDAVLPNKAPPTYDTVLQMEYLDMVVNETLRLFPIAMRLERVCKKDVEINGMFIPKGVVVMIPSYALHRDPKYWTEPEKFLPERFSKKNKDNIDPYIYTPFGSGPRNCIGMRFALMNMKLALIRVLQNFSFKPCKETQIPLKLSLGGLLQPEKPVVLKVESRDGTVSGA

[3] = target: human serotonin transporter (Homo sapiens (Human), UniProt P31645); assay: Human SERT (serotonin transporter) uptake assay; format: cell-based; details: read-out: hSERT Ki
Sequence of human serotonin transporter (P31645 whole entry): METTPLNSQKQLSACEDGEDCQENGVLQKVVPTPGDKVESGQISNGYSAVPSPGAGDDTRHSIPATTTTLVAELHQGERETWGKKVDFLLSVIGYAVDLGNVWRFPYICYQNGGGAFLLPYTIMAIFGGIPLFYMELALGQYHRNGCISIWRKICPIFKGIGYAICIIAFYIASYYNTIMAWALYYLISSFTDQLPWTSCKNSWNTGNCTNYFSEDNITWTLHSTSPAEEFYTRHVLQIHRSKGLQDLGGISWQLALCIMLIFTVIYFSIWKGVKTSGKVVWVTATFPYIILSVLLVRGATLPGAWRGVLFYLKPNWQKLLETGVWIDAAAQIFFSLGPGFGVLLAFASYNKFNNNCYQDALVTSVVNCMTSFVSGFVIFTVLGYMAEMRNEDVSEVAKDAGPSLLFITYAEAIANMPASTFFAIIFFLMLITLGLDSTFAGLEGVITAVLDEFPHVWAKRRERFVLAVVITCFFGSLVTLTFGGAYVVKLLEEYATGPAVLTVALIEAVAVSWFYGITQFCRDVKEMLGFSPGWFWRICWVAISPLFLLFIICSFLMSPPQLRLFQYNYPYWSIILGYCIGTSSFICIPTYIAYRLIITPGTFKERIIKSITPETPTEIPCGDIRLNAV
How it was run: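 HEK293F cells transfected with human SERT, about 60,000 per well, settled for ≥3 h at 37° C before compound addition. Uptake was followed with a fluorescent transporter dye in HBSS with 0.02 M HEPES. Background came from 10 μM fluoxetine, nomifensine was the control, n=3.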

[4] = target: human dopamine transporter (Homo sapiens (Human), UniProt Q01959); assay: Human DAT (dopamine transporter) uptake assay; format: cell-based; details: read-out: hDAT Ki
Sequence of human dopamine transporter (Q01959 whole entry): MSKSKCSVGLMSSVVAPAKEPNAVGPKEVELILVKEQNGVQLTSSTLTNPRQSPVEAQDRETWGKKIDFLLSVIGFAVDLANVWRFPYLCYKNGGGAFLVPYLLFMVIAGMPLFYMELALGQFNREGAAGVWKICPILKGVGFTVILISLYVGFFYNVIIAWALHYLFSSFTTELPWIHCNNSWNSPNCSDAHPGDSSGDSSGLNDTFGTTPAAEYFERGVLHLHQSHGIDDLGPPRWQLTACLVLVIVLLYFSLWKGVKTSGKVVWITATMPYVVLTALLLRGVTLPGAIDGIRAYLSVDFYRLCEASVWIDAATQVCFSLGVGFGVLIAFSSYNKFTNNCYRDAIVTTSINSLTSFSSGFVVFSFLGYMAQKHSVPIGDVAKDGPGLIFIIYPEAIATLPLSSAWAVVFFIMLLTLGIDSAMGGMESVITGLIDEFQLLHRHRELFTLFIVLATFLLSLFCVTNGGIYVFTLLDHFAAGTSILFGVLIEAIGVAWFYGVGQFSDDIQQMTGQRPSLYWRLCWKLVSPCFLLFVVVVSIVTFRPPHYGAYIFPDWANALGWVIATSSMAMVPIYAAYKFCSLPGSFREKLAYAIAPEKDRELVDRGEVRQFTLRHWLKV
How it was run: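 Uptake inhibition was measured in HEK293F cells transfected with human DAT, plated at ~60,000 cells/well and settled ≥3 h at 37 °C. Compounds came from 10 mM DMSO stocks. Read-out was uptake of a fluorescent neurotransmitter transporter dye in HBSS with 0.02 M HEPES, with dye level given as % of vendor reconstitution; n=3.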

[5] = target: CYP2D6 (Homo sapiens (Human), UniProt P10635); assay: Cytochrome P450 inhibition assay, recombinant CYP2D6 (MAMC substrate); format: in vitro ADME; details: recombinant enzyme
Sequence of CYP2D6 (P10635 whole entry): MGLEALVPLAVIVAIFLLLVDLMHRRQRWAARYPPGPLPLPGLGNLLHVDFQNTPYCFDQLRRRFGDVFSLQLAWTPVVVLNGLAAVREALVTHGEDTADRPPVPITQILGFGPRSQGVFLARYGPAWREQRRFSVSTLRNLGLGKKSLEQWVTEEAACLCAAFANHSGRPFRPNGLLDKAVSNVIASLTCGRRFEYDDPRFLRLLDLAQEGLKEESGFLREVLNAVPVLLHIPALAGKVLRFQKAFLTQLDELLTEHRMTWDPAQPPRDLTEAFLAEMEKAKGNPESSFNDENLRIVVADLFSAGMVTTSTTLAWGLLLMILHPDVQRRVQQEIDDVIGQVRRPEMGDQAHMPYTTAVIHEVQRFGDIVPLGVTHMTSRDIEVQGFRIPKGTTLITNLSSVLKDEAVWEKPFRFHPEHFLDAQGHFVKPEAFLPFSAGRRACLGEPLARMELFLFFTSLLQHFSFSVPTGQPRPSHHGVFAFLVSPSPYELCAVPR

[6] = target: hERG (Homo sapiens (Human), UniProt Q12809); assay: Human ERG (hERG) assay, hERG currents in hERG-expressing CHO cells; format: cell-based; details: hERG-expressing CHO cells
Sequence of hERG (Q12809 whole entry): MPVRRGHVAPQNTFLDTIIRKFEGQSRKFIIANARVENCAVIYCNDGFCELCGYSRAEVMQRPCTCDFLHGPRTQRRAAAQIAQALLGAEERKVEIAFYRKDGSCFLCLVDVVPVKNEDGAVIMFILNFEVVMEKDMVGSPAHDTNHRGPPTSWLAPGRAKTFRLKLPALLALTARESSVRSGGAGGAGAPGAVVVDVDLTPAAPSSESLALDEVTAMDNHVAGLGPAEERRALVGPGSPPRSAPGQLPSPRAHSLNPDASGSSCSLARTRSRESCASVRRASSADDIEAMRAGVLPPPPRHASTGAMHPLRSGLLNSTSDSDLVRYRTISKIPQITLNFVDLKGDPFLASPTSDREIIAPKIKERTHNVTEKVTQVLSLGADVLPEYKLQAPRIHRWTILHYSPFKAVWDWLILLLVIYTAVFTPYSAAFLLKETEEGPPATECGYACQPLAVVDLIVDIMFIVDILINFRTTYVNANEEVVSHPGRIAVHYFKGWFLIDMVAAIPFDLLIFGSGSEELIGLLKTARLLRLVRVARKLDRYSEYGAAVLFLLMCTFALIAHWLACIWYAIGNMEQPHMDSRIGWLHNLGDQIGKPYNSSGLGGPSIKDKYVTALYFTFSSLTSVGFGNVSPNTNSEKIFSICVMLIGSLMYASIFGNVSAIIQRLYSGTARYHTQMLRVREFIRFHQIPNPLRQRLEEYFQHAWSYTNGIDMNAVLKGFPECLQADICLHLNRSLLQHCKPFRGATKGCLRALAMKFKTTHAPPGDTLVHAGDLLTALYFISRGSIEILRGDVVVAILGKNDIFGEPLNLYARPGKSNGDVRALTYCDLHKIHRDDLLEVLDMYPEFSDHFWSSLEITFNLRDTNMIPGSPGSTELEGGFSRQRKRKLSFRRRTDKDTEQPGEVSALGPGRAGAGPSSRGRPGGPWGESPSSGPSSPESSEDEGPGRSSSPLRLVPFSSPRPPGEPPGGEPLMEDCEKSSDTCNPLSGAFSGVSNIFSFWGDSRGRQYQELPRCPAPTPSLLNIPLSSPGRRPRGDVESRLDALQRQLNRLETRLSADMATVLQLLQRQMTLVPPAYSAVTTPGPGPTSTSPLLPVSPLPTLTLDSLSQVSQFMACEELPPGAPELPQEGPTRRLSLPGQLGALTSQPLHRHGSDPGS
From the text: The voltage-dependent potassium channel encoded by the human ether-a-go-go-related gene (hERG) is believed to play a key role in repolarisation of the ventricular cardiac action potential. Changes in its activity, caused either by inherited mutations of the gene sequence or pharmacological modification, can lead to prolongation of action potential duration. This can lead to prolongation of the QT interval recorded in man on an electrocardiogram and to a potentially fatal cardiac arrhythmia known as Torsades de Pointes.
hERG currents were recorded from hERG-expressing CHO cells. The biophysical and pharmacological characterization of the hERG currents in these cells was performed.

[7] = pKa of basic centres (Table 1); format: physicochemical
[8] = first base, e.g., an aliphatic primary, secondary, or tertiary amine, read-out: pKa (Base 1)
[9] = second base in the same molecule (if present), read-out: pKa (Base 2)

Sequence of human norepinephrine transporter (P23975 whole entry): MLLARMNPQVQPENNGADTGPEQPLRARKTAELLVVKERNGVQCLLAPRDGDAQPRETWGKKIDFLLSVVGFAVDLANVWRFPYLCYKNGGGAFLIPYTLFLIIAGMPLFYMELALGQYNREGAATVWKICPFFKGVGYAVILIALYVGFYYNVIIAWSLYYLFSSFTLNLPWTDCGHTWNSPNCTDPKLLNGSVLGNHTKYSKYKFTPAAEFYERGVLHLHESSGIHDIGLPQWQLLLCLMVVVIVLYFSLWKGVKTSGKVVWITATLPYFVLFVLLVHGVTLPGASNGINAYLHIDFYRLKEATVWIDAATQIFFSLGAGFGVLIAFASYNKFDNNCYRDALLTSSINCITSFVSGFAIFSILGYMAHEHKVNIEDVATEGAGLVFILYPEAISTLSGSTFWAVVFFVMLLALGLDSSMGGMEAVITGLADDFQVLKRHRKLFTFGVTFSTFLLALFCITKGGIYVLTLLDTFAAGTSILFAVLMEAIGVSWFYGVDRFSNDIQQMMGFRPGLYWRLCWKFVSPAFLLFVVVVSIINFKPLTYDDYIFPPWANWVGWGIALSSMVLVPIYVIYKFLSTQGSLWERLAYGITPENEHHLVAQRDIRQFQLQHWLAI

| Ki [1] [nM] | IC50 [2] [nM] | Ki [3] [nM] | Ki [4] [nM] | IC50 [5] [nM] | pKa [7, 8] | pKa (Base 1) ([7]; first base, e.g., an aliphatic primary, secondary, or tertiary amine) | Compound | IC50 [6] [nM] | pKa [7, 9] |
| --- | --- | --- | --- | --- | --- | --- | --- | --- | --- |
| 3.2 | 19000 | 3.3 | 114 | 960 | 10 |  | CNCC(Cc1cccs1)c1ccc2ccccc2c1 (racemic) [Compound 40] | 4100 |  |
| 4.5 | ≥ 20000 | 17.3 | 9.8 | 410 | 9.4 |  | CNCC(c1ccc(Cl)c(Cl)c1)[C@H](O)c1ccccc1 (mixture of isomers) [Compound 53] | 9800 |  |
| 4.7 | 11000 | 6.7 | 40.4 | 240 | 9.7 |  | CNC[C@H](c1ccc2ccccc2c1)[C@H](O)c1ccccc1C (racemic) [Compound 56] | 22000 |  |
| 10.1 | ≥ 20000 | 27.6 | 100 | 760 | 9.6 |  | CNC[C@@H](c1ccc2ccccc2c1)[C@H](O)c1ccccn1 (racemic) [Compound 72] | 33000 | 4.1 |
| 11.7 | ≥ 20000 | 21.4 | 58.1 | 910 | 8.9 |  | CN(C)C[C@H](c1ccc2ccccc2c1)[C@H](O)c1cccs1 (racemic) [Compound 135] | 3100 |  |
| 37.4 | 3400 | 15.7 | 64.5 | 190 | 9.7 |  | CNC[C@H](c1ccc2ccccc2c1)[C@H](OC)c1ccc2c(c1)OCO2 (racemic) [Compound 136] | 5400 |  |
| 10.9 | 19000 | 9.4 | 134 | 310 | 9.7 |  | CNC[C@@H](c1ccc2ccccc2c1)[C@@H](O)c1ccc2c(c1)OCCO2 (racemic) [Compound 145] | 11000 |  |
| 20.4 | 2100 | 45.2 | 31.4 | 130 | 9.4 |  | CNC[C@H](c1ccc(Cl)c(Cl)c1)[C@H](O)c1cccc(I)c1 (single isomer, unassigned) [Compound 151] | 3800 |  |
| 0.7 |  | 1.9 | 20.7 | 1100 | 9.6 |  | CNC[C@H](c1ccc2ccccc2c1)[C@H](OCC(=O)NC)c1ccccc1 [Compound 1] | 33000 |  |
| 1 |  | 2.5 | 5.5 | 170 |  | 10 | CNCC(Cc1ccccc1CO)c1ccc2ccccc2c1 (centres unmarked) [Compound 2] | 15000 |  |
| 1.3 | 20000 | 0.6 | 5.2 | 1300 | 9.6 |  | CNC[C@H](c1ccc2ccccc2c1)[C@H](OCC(N)=O)c1ccccc1 [Compound 3] | 33000 |  |
| 1.4 | 18000 | 2.8 | 10.1 | 240 | 10.1 |  | CNC[C@@H](Cc1ccccc1)c1ccc2ccccc2c1 [Compound 5] | 6500 |  |
| 1.4 |  | 0.8 | 39.2 | 760 | 9.6 |  | CCNC(=O)CO[C@H](c1ccccc1)[C@H](CNC)c1ccc2ccccc2c1 [Compound 6] | 25000 |  |
| 1.5 | 20000 | 11.7 | 7.3 | 120 | 9.4 |  | CNC[C@H](c1ccc(Cl)c(Cl)c1)[C@H](O)c1ccccc1 [Compound 10] | 9100 |  |
| 1.6 | 17000 | 5.4 | 19.7 | 400 | 9.6 |  | CNC[C@H](c1ccc2ccccc2c1)[C@H](OCC(=O)NC1CC1)c1ccccc1 [Compound 13] | 19000 |  |
| 1.6 | 20000 | 3.1 | 79.3 | 3700 | 9.6 |  | CNC[C@H](c1ccc2ccccc2c1)[C@H](OCC(=O)NCCO)c1ccccc1 [Compound 14] | 33000 |  |
| 1.7 | 20000 | 2.4 | 42.5 | 200 | 9.7 |  | CNC[C@H](c1ccc2ccccc2c1)[C@H](O)c1ccccc1F [Compound 15] | 12000 |  |
| 1.8 |  | 0.4 | 31.9 | 330 | 9.6 |  | CNC[C@H](c1ccc2ccccc2c1)[C@H](OCc1cc(C)on1)c1ccccc1 [Compound 18] | 4600 |  |
| 1.9 | 20000 | 4.3 | 17 | 20000 | 9.6 |  | CNC[C@H](c1ccc2ccccc2c1)[C@H](OCC(=O)N1CC[C@H](O)C1)c1ccccc1 [Compound 19] | 33000 |  |
| 2.4 |  | 1.1 | 37.2 | 650 | 9.6 |  | CCCNC(=O)CO[C@H](c1ccccc1)[C@H](CNC)c1ccc2ccccc2c1 [Compound 29] | 11000 |  |
| 2.7 |  | 1.4 | 13.2 | 550 | 9.6 |  | CNC[C@H](c1ccc2ccccc2c1)[C@H](OCC(=O)N(C)C)c1ccccc1 [Compound 33] | 33000 |  |
| 2.8 |  | 3.7 | 70.8 | 320 | 9.6 |  | CCOC(=O)CO[C@H](c1ccccc1)[C@H](CNC)c1ccc2ccccc2c1 [Compound 35] | 13000 |  |
| 3.8 |  | 2.9 | 36.5 | 800 | 9.6 |  | CNC[C@H](c1ccc2ccccc2c1)[C@H](OCC(=O)N1CCCC1)c1ccccc1 [Compound 50] | 17000 |  |
| 7.2 |  | 11.3 | 9.4 | 5100 | 9.3 |  | c1ccc([C@@H]2OCCNC[C@H]2c2ccc3ccccc3c2)cc1 [Compound 64] | 20000 |  |
|  | 20000 |  |  | 790 | 9.3 |  | CNCC(c1ccc(F)c(Cl)c1)[C@H](O)c1ccccc1 (some centres unmarked) [Compound 73] | 31000 |  |
| 12.4 |  | 3 | 44.7 | 5700 | 8.2 |  | CN1CCO[C@H](c2ccccc2)[C@@H](c2ccc3ccccc3c2)C1 [Compound 77] | 4500 |  |
| 22.6 |  | 25.4 | 86.2 | 590 | 10 |  | CNCC(Cc1ccccc1CO)c1ccc2ccccc2c1 (centres unmarked) [Compound 90] | 12000 |  |
| 29.5 |  | 1.1 | 137 | 1200 | 10.1 |  | CNC[C@H](C[C@H](O)c1ccccc1)c1ccc2ccccc2c1 [Compound 93] | 13000 |  |

| Compound | Ki [1] [nM] | IC50 [2] [nM] | Ki [3] [nM] | Ki [4] [nM] | IC50 [5] [nM] | pKa [7, 8] | pKa (Base 1) ([7]; first base, e.g., an aliphatic primary, secondary, or tertiary amine) | IC50 [6] [nM] | pKa [7, 9] |
| --- | --- | --- | --- | --- | --- | --- | --- | --- | --- |
| CNC[C@H](c1ccc(Br)c(Cl)c1)[C@H](O)c1ccccc1 (racemic) [Compound 43] | 3.3 | 8100 | 19.7 | 7.3 | 110 | 9.4 |  | 7100 |  |
| CNC[C@H](c1ccc2ccccc2c1)[C@H](O)c1cccnc1 (racemic) [Compound 62] | 6.5 | ≥ 20000 | 9.9 | 45 | 1000 | 9.6 |  | 25000 | 5.1 |
| CNC[C@H](c1ccc2ccccc2c1)[C@H](F)c1ccccc1 [Compound 9] | 1.5 | 8600 | 5.7 | 42.3 | 210 | 9.4 |  | 9500 |  |
| CNC[C@H](c1ccc2ccccc2c1)[C@@H](F)c1ccccc1 [Compound 11] | 1.6 | 6700 | 4.2 | 11.1 | 96 | 9.4 |  | 11000 |  |
| CNCC(c1ccc(Br)c(Cl)c1)[C@H](O)c1ccccc1 (some centres unmarked) [Compound 16] | 1.8 | 19000 | 6.3 | 6.6 | 230 | 9.4 |  | 5000 |  |
